A value given as a limit tells only on which side of the number the result lay.

For this experiment, the target named is T1, recombinant hRIPK2 protein (kinase domain aa 1-299-His-tagged) (Homo sapiens, UniProt O43353).
T1 construct: kinase domain aa 1-299-His-tagged; purchased Life Technologies PR7829A
T1 sequence (O43353 1-299): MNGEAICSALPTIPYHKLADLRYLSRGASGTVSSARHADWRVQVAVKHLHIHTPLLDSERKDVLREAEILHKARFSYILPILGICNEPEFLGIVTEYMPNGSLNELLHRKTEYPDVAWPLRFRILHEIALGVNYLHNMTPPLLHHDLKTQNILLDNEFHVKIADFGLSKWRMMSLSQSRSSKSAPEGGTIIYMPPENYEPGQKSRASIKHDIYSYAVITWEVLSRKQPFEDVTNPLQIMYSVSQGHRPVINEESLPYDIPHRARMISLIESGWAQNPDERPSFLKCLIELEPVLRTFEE
The experiment in a line: RIPK2 AlphaLISA assay (displacement of bead-bound CZC-8004 from hRIPK2). The conditions noted are these: recombinant hRIPK2 kinase domain 10 nM, 2 h at 23° C. The class given is binding. The text has this:
RIPK2 AlphaLISA® Assay (Amplified Luminescent Proximity Homogeneous Assay)
A non-specific kinase inhibitor (CZC-8004 Cayman #916603-07-1) bound to an acceptor bead (#6772001 PerkinElmer) was mixed to the recombinant hRIPK2 protein (kinase domain aa 1-299-His-tagged—Life Technologies PR7829A) and a Ni2+-tagged donor beads (#AS101D PerkinElmer). In the presence of an inhibitor, the compound beads displacement from hRIPK2 was followed by signal loss. In a 384-well ProxiPlate@ (Perkin Elmer, 6008280) add:
2 μL RIPK2 inhibitor (in DMSO 0.8%).
2 μL human recombinant RIPK2 (10 nM diluted in AlphaLISA buffer 1×).
4 μL Mix of […] 1/1000 in AlphaLISA buffer 1×.
Homogenize using a microtiter plate shaker and incubate for 2 h at 23° C.
Read using EnVision®-Alpha Reader (PerkinElmer) according to manufacturer specifications.
Regarding `O=C1[C@H](OCC2CC2)C[C@H]2COc3ccn4ncc(c4n3)-c3cc(F)cc(c3)NCCN12` [Example 11, (12R,14S)-12-(cyclopropylmethoxy)-4-fluoro-16-oxa-7,10,20,21,24-pentaazapentacyclo[15.5.2.1^2,6.0^10,^14.0^20,^23]pentacosa-1(23),2(25),3,5,17(24),18,21-heptaen-11-one], the IC50 was < 10 nM.

`CO[C@@H]1C[C@H]2COc3ccn4ncc(c4n3)-c3cc(C#N)cc(c3)NCCN2C1=O` [Example 12, (12R,14S)-12-methoxy-11-oxo-16-oxa-7,10,20,21,24-pentaazapentacyclo[15.5.2.1^2,6.0^10,^14.0^20,23]pentacosa-1(23),2,4,6(25),17(24),18,21-heptaene-4-carbonitrile]: the IC50 is < 10 nM. The value for `CO[C@@H]1C[C@H]2COc3ccn4ncc(c4n3)-c3cc(cc(OC(F)F)c3)NCCN2C1=O` [Example 13, (12R,14S)-4-(difluoromethoxy)-12-methoxy-16-oxa-7,10,20,21,24-pentaazapentacyclo[15.5.2.1^2,6.0^10,^14.0^20,^23]pentacosa-1(23),2,4,6(25),17(24),18,21-heptaen-11-one] was < 10 nM; that for `CO[C@@H]1C[C@H]2COc3ccn4ncc(c4n3)-c3cc(cc(OCc4ccccc4)c3)NCCN2C1=O` [Example 14, (12R, 14S)-4-(benzyloxy)-12-methoxy-16-oxa-7,10,20,21,24-pentaazapentacyclo[15.5.2.1^2,6.0^10,14.0^20,^23]pentacosa-1(23),2,4,6(25),17(24),18,21-heptaen-11-one] was 10 to 100 nM; that for `CO[C@@H]1C[C@H]2COc3ccn4ncc(c4n3)-c3cc(cc(F)c3F)NCCN2C1=O` [Example 15, (12R,14S)-3,4-difluoro-12-methoxy-16-oxa-7,10,20,21,24-pentaazapentacyclo[15.5.2.1^2,6.0^10,^14.0^20,^23]pentacosa-1(23),2,4,6(25),17(24),18,21-heptaen-11-one] was 10 to 100 nM.

As to `COc1cc2cc(c1)-c1cnn3ccc(nc13)OC[C@@H]1C[C@@H](OC(C)C)C(=O)N1CCN2` [Example 16, (12R,14S)-4-methoxy-12-(propan-2-yloxy)-16-oxa-7,10,20,21,24-pentaazapentacyclo[15.5.2.1^2,6.0^10,^14.0^20,^23]pentacosa-1(23),2,4,6(25),17(24),18,21-heptaen-11-one], the IC50 was < 10 nM.

For `CCO[C@@H]1C[C@H]2COc3ccn4ncc(c4n3)-c3cc(F)cc(c3)NCCN2C1=O` [Example 17, (12R,14S)-12-ethoxy-4-fluoro-16-oxa-7,10,20,21,24-pentaazapentacyclo[15.5.2.1^2,6.0^10,^14.0^20,^23]pentacosa-1(23),2,4,6(25),17(24),18,21-heptaen-11-one], the IC50 is < 10 nM. The value for `CCO[C@@H]1C[C@H]2COc3nc4c(cnn4cc3C)-c3cc(F)cc(c3)NCCN2C1=O` [Example 18, (12R,14S)-12-ethoxy-4-fluoro-18-methyl-16-oxa-7,10,20,21,24-pentaazapentacyclo[15.5.2.1^2,6.0^10,^14.0^20,^23]pentacosa-1(23),2,4,6(25),17(24),18,21-heptaen-11-one] was < 10 nM; that for `COc1cc2cc(c1)-c1cnn3cc(C)c(nc13)OC[C@@H]1C[C@@H](OC)C(=O)N1CCN2` [Example 19, (12R,14S)-4,12-dimethoxy-18-methyl-16-oxa-7,10,20,21,24-pentaazapentacyclo[15.5.2.1^2,6.0^10,^14.0^20,^23]pentacosa-1(23),2(25),3,5,17(24),18,21-heptaen-11-one] was < 10 nM; that for `CCO[C@@H]1C[C@H]2COc3ccn4ncc(c4n3)-c3cc(Cl)cc(c3)NCCN2C1=O` [Example 20, (12R,14S)-4-chloro-12-ethoxy-16-oxa-7,10,20,21,24-pentaazapentacyclo[15.5.2.1^2,6.0^10,^14.0^20,^23]pentacosa-1(23),2,4,6(25),17(24),18,21-heptaen-11-one] was < 10 nM. Next, `CCc1cc2cc(c1)-c1cnn3ccc(nc13)OC[C@@H]1C[C@@H](OC)C(=O)N1CCN2` [Example 21, (12R,14S)-4-ethyl-12-methoxy-16-oxa-7,10,20,21,24-pentaazapentacyclo[15.5.2.1^2,6.0^10,^14.0^20,^23]pentacosa-1(23),2,4,6(25),17(24),18,21-heptaen-11-one]: 10 to 100 nM; `COc1cc2cc(c1)-c1cnn3ccc(nc13)OC[C@@H]1C[C@@H](OCC3CC3)C(=O)N1CCN2` [Example 22, (12R,14S)-12-(cyclopropylmethoxy)-4-methoxy-16-oxa-7,10,20,21,24-pentaazapentacyclo[15.5.2.1^2,6.0^10,^14.0^20,^23]pentacosa-1(23),2(25),3,5,17(24),18,21-heptaen-11-one]: < 10 nM; `CCO[C@@H]1C[C@H]2COc3ccn4ncc(c4n3)-c3cc(C#N)cc(c3)NCCN2C1=O` [Example 23, (12R,14S)-12-ethoxy-11-oxo-16-oxa-7,10,20,21,24-pentaazapentacyclo[15.5.2.1^2,6.0^10,^14.0^20,^23]pentacosa-1(23),2,4,6(25),17(24),18,21-heptaene-4-carbonitrile]: < 10 nM.

In the case of `CO[C@@H]1C[C@H]2COc3nc4c(cnn4cc3C)-c3cc(Cl)cc(c3)NCCN2C1=O` [Example 24, (12R,14S)-4-chloro-12-methoxy-18-methyl-16-oxa-7,10,20,21,24-pentaazapentacyclo[15.5.2.1^2,6.0^10,^14.0^20,^23]pentacosa-1(23),2(25),3,5,17(24),18,21-heptaen-11-one], the IC50 was < 10 nM.

As for `CO[C@H]1C[C@H]2COc3ccn4ncc(c4n3)-c3cc(F)cc(c3)NCCN2C1=O` [Example 25, (12S,14S)-4-fluoro-12-methoxy-16-oxa-7,10,20,21,24-pentaazapentacyclo[15.5.2.1^2,6.0^10,^14.0^20,^23]pentacosa-1(23),2(25),3,5,17(24),18,21-heptaen-11-one], the IC50 was < 10 nM.

As to `O=C1[C@H](F)C[C@H]2COc3ccn4ncc(c4n3)-c3cc(F)cc(c3)NCCN12` [Example 26, (12R,14S)-4,12-difluoro-16-oxa-7,10,20,21,24-pentaazapentacyclo[15.5.2.1^2,6.0^10,^14.0^20,^23]pentacosa-1(23),2,4,6(25),17(24),18,21-heptaen-11-one], the IC50 is < 10 nM.

`COc1cc2cc(c1F)NCCN1C(=O)[C@H](OC)C[C@H]1COc1ccn3ncc-2c3n1` [Example 27, (12R,14S)-5-fluoro-4,12-dimethoxy-16-oxa-7,10,20,21,24-pentaazapentacyclo[15.5.2.1^2,6.0^10,^14.0^20,^23]pentacosa-1(23),2,4,6(25),17(24),18,21-heptaen-11-one]: the IC50 is < 10 nM.

Take `CCOc1cc2cc(c1)-c1cnn3ccc(nc13)OC[C@@H]1C[C@@H](OCC)C(=O)N1CCN2` [Example 28, (12R,14S)-4,12-diethoxy-16-oxa-7,10,20,21,24-pentaazapentacyclo[15.5.2.1^2,6.0^10,^14.0^20,^23]pentacosa-1(23),2(25),3,5,17(24),18,21-heptaen-11-one]: the IC50 was < 10 nM. Regarding `CO[C@@H]1C[C@H]2COc3ccn4ncc(c4n3)-c3cc(F)c(F)c(c3)NCCN2C1=O` [Example 29, (12R,14S)-4,5-difluoro-12-methoxy-16-oxa-7,10,20,21,24-pentaazapentacyclo[15.5.2.1^2,6.0^10,^14.0^20,^23]pentacosa-1(23),2(25),3,5,17(24),18,21-heptaen-11-one], the IC50 is < 10 nM.

Take `CO[C@@H]1C[C@H]2COc3nc4c(cnn4cc3C)-c3cc(F)cc(c3)NCCN2C1=O` [Example 30, (12R,14S)-4-fluoro-12-methoxy-18-methyl-16-oxa-7,10,20,21,24-pentaazapentacyclo[15.5.2.1^2,6.0^10,^14.0^20,^23]pentacosa-1(23),2(25),3,5,17(24),18,21-heptaen-11-one]: the IC50 is < 10 nM. The value for `COCc1cn2ncc3c2nc1OC[C@@H]1C[C@@H](OC)C(=O)N1CCNc1cc(F)cc-3c1` [Example 33, (12R,14S)-4-fluoro-12-methoxy-18-(methoxymethyl)-16-oxa-7,10,20,21,24-pentaazapentacyclo[15.5.2.1^2,6.0^10,^14.0^20,^23]pentacosa-1(23),2(25),3,5,17(24),18,21-heptaen-11-one] was < 10 nM; that for `CO[C@@H]1C[C@H]2COc3nc4c(cnn4cc3F)-c3cc(F)cc(c3)NCCN2C1=O` [Example 34, (12R,14S)-4,18-difluoro-12-methoxy-16-oxa-7,10,20,21,24-pentaazapentacyclo[15.5.2.1^2,6.0^10,^14.0^20,^23]pentacosa-1(23),2(25),3,5,17(24),18,21-heptaen-11-one] was < 10 nM. As for `COCCO[C@@H]1C[C@H]2COc3ccn4ncc(c4n3)-c3cc(F)cc(c3)NCCN2C1=O` [Example 35, (12R,14S)-4-fluoro-12-(2-methoxyethoxy)-16-oxa-7,10,20,21,24-pentaazapentacyclo[15.5.2.1^2,6.01^0,^14.0^20,23]pentacosa-1(23),2,4,6(25),17(24),18,21-heptaen-11-one], the IC50 was < 10 nM. The value for `[2H]C([2H])([2H])O[C@@H]1C[C@H]2COc3ccn4ncc(c4n3)-c3cc(F)cc(c3)NCCN2C1=O` [Example 36, (12R,14S)-4-fluoro-12-(^2H3)methoxy-16-oxa-7,10,20,21,24-pentaazapentacyclo[15.5.2.1^2,6.0^10,^14.0^20,^23]pentacosa-1(23),2(25),3,5,17(24),18,21-heptaen-11-one] was < 10 nM.

Values taken from patent US12630563B2, “Macrocyclic RIP2-kinase inhibitors” (Oncodesign S.A., priority 2020, dated 2026).
